Data reported in ChEMBL document CHEMBL1137116, “Synthesis and structure-activity relationships of 1,5-diazaanthraquinones as antitumour compounds” (Bioorg Med Chem Lett, 2004).

Experiments:
HT-29 = assay: Cytotoxic activity of compound against HT-29 (Human colon carcinoma) cell line; format: functional, cell-based
A549 = assay: Cytotoxic activity against A-549 (Human lung carcinoma) cell line; format: functional, cell-based
[1] = Cytotoxic activity of compound against MEL-28 (Human melanoma) cell line; format: functional; conditions: SK-MEL-28

For `Cc1ccnc2c1C(=O)c1nccc(N(C)C)c1C2=O`, the IC50 (HT-29) was 0.93 µM, the IC50 (A549) was 0.37 µM and the IC50 [1] was 0.37 µM.

Molecule `CCc1cnc2c(c1)C(=O)c1cc(CC)cnc1C2=O` has an IC50 (HT-29) of 1.88 µM, an IC50 (A549) of 0.45 µM and an IC50 [1] of 0.79 µM.

`COc1cccc2c1C(=O)c1c(O)c3c(c(O)c1C2=O)C[C@@](O)(C(=O)CO)C[C@@H]3O[C@H]1C[C@H](N)[C@H](O)[C@H](C)O1` [DOXORUBICIN] showed an IC50 (HT-29) of 0.09 µM, an IC50 (A549) of 0.01 µM and an IC50 [1] of 0.03 µM.

With `CCc1c(C)cnc2c1C(=O)c1c(ncc(C)c1CC)C2=O` the IC50 (HT-29) was 8.5 µM, the IC50 (A549) was 8.5 µM and the IC50 [1] was 8.5 µM.

`Cc1ccnc2c1C(=O)c1nccc(C)c1C2=O` gave an IC50 (HT-29) of 1 µM, an IC50 (A549) of 0.5 µM and an IC50 [1] of 1 µM.

Work on `CCc1c(C)cnc2c1C(=O)c1ncc(C)c(CC)c1C2=O` yielded an IC50 (HT-29) of 3.4 µM, an IC50 (A549) of 3.4 µM and an IC50 [1] of 3.4 µM.

`Cc1ccnc2c1C(=O)c1nccc(Cl)c1C2=O` gave an IC50 (HT-29) of 1.93 µM, an IC50 (A549) of 0.19 µM and an IC50 [1] of 0.19 µM.

`Cc1cnc2c(c1)C(=O)c1nccc(Cl)c1C2=O` gave an IC50 (HT-29) of 0.04 µM, an IC50 (A549) of 0.03 µM and an IC50 [1] of 0.03 µM.

`Cc1cnc2c(c1)C(=O)c1cc(C)cnc1C2=O` showed an IC50 (HT-29) of 0.5 µM, an IC50 (A549) of 0.21 µM and an IC50 [1] of 0.21 µM.

For `O=C1c2nccc(-c3ccccc3[N+](=O)[O-])c2C(=O)c2nccc(O)c21`, the IC50 (HT-29) was 7.2 µM, the IC50 (A549) was 7.2 µM and the IC50 [1] was 7.2 µM.

For `Cc1cnc2c(c1)C(=O)c1ncc(C)cc1C2=O`, the IC50 (HT-29) was 0.42 µM, the IC50 (A549) was 0.04 µM and the IC50 [1] was 0.04 µM.

Molecule `O=C1c2cccnc2C(=O)c2cccnc21` has an IC50 (HT-29) of 4.8 µM, an IC50 (A549) of 4.8 µM and an IC50 [1] of 4.8 µM.

`Cc1ccnc2c1C(=O)c1nc3c(cc1C2=O)CCCC3` showed an IC50 (HT-29) of 18 µM, an IC50 (A549) of 4.49 µM and an IC50 [1] of 18 µM.

In the case of `Cc1cc[n+](N(C)C)c2c1C(=O)c1nccc(Cl)c1C2=O`, the IC50 (HT-29) is reported as 1.93 µM, the IC50 (A549) is reported as 0.33 µM and the IC50 [1] is reported as 0.33 µM.

Molecule `Cc1ccnc2c1C(=O)c1c(C)ccnc1C2=O` has an IC50 (HT-29) of 2.1 µM, an IC50 (A549) of 2.1 µM and an IC50 [1] of 2.1 µM.

`O=C1c2nccc(-c3ccccc3[N+](=O)[O-])c2C(=O)c2nccc(Cl)c21` showed an IC50 (HT-29) of 0.27 µM, an IC50 (A549) of 0.03 µM and an IC50 [1] of 0.03 µM.

Molecule `CCc1cnc2c(c1)C(=O)c1ncc(CC)cc1C2=O` has an IC50 (HT-29) of 1.88 µM, an IC50 (A549) of 0.19 µM and an IC50 [1] of 0.38 µM.

With `O=C1c2cccnc2C(=O)c2ncccc21` the IC50 (HT-29) was 5.7 µM, the IC50 (A549) was 4.8 µM and the IC50 [1] was 4.8 µM.
